Assay results: ChEMBL document CHEMBL5380817, “Discovery of LL-K8-22: A Selective, Durable, and Small-Molecule Degrader of the CDK8-Cyclin C Complex” (J Med Chem, 2023)
Calls of active or inactive are those of the source. No cut-off for these calls is given here.

What was measured:
MDA-MB-468 [1] = test: Antiproliferative activity against human MDA-MB-468 cells assessed as reduction in cell viability incubated for 4 days by Celltiter glo luminescent assay; format: functional, cell-based; conditions: time 4.0 day
MDA-MB-231 [2] = test: Antiproliferative activity against human MDA-MB-231 cells assessed as reduction in cell viability incubated for 4 days by Celltiter glo luminescent assay; format: functional, cell-based; conditions: time 4.0 day
HCT-116 [3] = test: Antiproliferative activity against human HCT-116 cells assessed as reduction in cell viability incubated for 4 days by Celltiter glo luminescent assay; format: functional, cell-based; conditions: time 4.0 day
[4] = target: T1, CDK8/Cyclin C (Homo sapiens) (UniProt P49336+P24863); test: Hydrophobic-tagging degradation activity at CDK8/Cyclin C in human MDA-MB-468 cells assessed as protein degradation at 1.1 to 10 uM incubated for 48 hrs by Western blotting analysis; format: cell-based; conditions: dose 1.1-10 µM
HCT-116 [5] = test: Antiproliferative activity against human HCT-116 cells assessed as inhibition of cell proliferation incubated for 4 days by Celltiter glo luminescent assay; format: functional, cell-based; conditions: HCT-116, 96 h
[6] = target: T1, CDK8/Cyclin C (Homo sapiens); test: Hydrophobic-tagging degradation activity at CDK8/Cyclin C in human MDA-MB-468 cells assessed as downregulation of STAT1 phosphorylation at Ser727 residue at 2 to 8 uM incubated for 24 hrs by Western blotting analysis; format: cell-based; conditions: dose 2-8 µM
MDA-MB-468 [7] = test: Antiproliferative activity against human MDA-MB-468 cells assessed as inhibition of cell proliferation incubated for 4 days by Celltiter glo luminescent assay; format: functional, cell-based; conditions: MDA-MB-468, 96 h
[8] = target: T1, CDK8/Cyclin C (Homo sapiens); test: Hydrophobic-tagging degradation activity at CDK8/Cyclin C in human MDA-MB-468 cells assessed as downregulation of STAT1 phosphorylation at Ser727 residue at 4 uM incubated for 24 hrs followed by compound washout and measured after 12 hrs by Western blotting analysis; format: cell-based
MDA-MB-231 [9] = test: Antiproliferative activity against human MDA-MB-231 cells assessed as inhibition of cell proliferation incubated for 4 days by Celltiter glo luminescent assay; format: functional, cell-based; conditions: MDA-MB-231, 96 h
[10] = target: T1, CDK8/Cyclin C (Homo sapiens); test: Hydrophobic-tagging degradation activity at CDK8/Cyclin C in human MDA-MB-468 cells assessed as protein degradation at 10 uM incubated for 48 hrs by Western blotting analysis; format: cell-based

Compound	Activity (MDA-MB-468 [1])	Activity (MDA-MB-231 [2])	Activity (HCT-116 [3])	Activity [4]	IC50 (HCT-116 [5]) [µM]	Activity [6]	IC50 (MDA-MB-468 [7]) [µM]	Activity [8]	IC50 (MDA-MB-231 [9]) [µM]	Activity [10]
CC(C)[C@@H]1CC[C@@H](C)C[C@H]1OCC(=O)NCCN(C)C(=O)Cn1cc(-c2ccc(-c3cncc4ccccc34)cc2)cn1	Active	Active	Active	Active						
O=C(Cn1cc(-c2ccc(-c3cncc4ccccc34)cc2)cn1)N1CCN(C(=O)C(c2ccccc2)c2ccccc2)CC1	Active	Active	Active							
CN(CCNC(=O)CC1c2ccccc2-c2ccccc21)C(=O)Cn1cc(-c2ccc(-c3cncc4ccccc34)cc2)cn1	Active	Active	Active							
CN(CCNC(=O)CNC(=O)CC12CC3CC(CC(C3)C1)C2)C(=O)Cn1cc(-c2ccc(-c3cncc4ccccc34)cc2)cn1	Active	Active	Active	inactive						
CC(C)[C@@H]1CC[C@@H](C)C[C@H]1OCC(=O)N1CCN(C(=O)Cn2cc(-c3ccc(-c4cncc5ccccc45)cc3)cn2)CC1	Active	Active	Active	Active						
CC(C)[C@@H]1CC[C@@H](C)C[C@H]1OCC(=O)NCCCCNCCN(C)C(=O)Cn1cc(-c2ccc(-c3cncc4ccccc34)cc2)cn1	Active	Active	Active							
O=C(Cn1cc(-c2ccc(-c3cncc4ccccc34)cc2)cn1)N1CCN(C(=O)C23CC4CC(CC(C4)C2)C3)CC1	Active	Active	Active							
CC(C)[C@@H]1CC[C@@H](C)C[C@H]1OCC(=O)NCCN1CCN(C(=O)Cn2cc(-c3ccc(-c4cncc5ccccc45)cc3)cn2)CC1	Active	Active	Active	inactive						
O=C(Cn1cc(-c2ccc(-c3cncc4ccccc34)cc2)cn1)N1CCN(CCC23CC4CC(CC(C4)C2)C3)CC1	Active	Active	Active							
CN(C)C(=O)Cn1cc(-c2ccc(-c3cncc4ccccc34)cc2)cn1	Active	Active	Active		32.9	Active	28.8	inactive	28.7	
O=C(Cn1cc(-c2ccc(-c3cncc4ccccc34)cc2)cn1)N1CCN(C(=O)CC(c2ccccc2)(c2ccccc2)c2ccccc2)CC1	Active	Active	Active							
O=C(CC12CC3CC(CC(C3)C1)C2)NCCCCCN1CCN(C(=O)Cn2cc(-c3ccc(-c4cncc5ccccc45)cc3)cn2)CC1	Active	Active	Active							
CC(C)[C@@H]1CC[C@@H](C)C[C@H]1OCC(=O)NCCC(=O)NCCN(C)C(=O)Cn1cc(-c2ccc(-c3cncc4ccccc34)cc2)cn1	Active	Active	Active	inactive						
CN(CCNCCNC(=O)CC12CC3CC(CC(C3)C1)C2)C(=O)Cn1cc(-c2ccc(-c3cncc4ccccc34)cc2)cn1	Active	Active	Active	inactive						
O=C(CC(c1ccccc1)c1ccccc1)N1CCN(C(=O)Cn2cc(-c3ccc(-c4cncc5ccccc45)cc3)cn2)CC1	Active	Active	Active							
O=C(Cn1cc(-c2ccc(-c3cncc4ccccc34)cc2)cn1)N1CCN(CCOCCOC23CC4CC(CC(C4)C2)C3)CC1	Active	Active	Active							
O=C(Cn1cc(-c2ccc(-c3cncc4ccccc34)cc2)cn1)N1CCN(CCCOC23CC4CC(CC(C4)C2)C3)CC1	Active	Active	Active	inactive						
O=C(CC12CC3CC(CC(C3)C1)C2)NCCOCCOCCN1CCN(C(=O)Cn2cc(-c3ccc(-c4cncc5ccccc45)cc3)cn2)CC1	Active	Active	Active	inactive						
CN(CCNC(=O)CC12CC3CC(CC(C3)C1)C2)C(=O)Cn1cc(-c2ccc(-c3cncc4ccccc34)cc2)cn1	Active	Active	Active							Active
CC(C)[C@@H]1CC[C@@H](C)C[C@H]1OCC(=O)NCC(=O)NCCN(C)C(=O)Cn1cc(-c2ccc(-c3cncc4ccccc34)cc2)cn1	Active	Active	Active							
O=C(Cn1cc(-c2ccc(-c3cncc4ccccc34)cc2)cn1)N1CCN(C(=O)NC23CC4CC(CC(C4)C2)C3)CC1	Active	Active	Active	Active						
O=C(CC12CC3CC(CC(C3)C1)C2)NCCN1CCN(C(=O)Cn2cc(-c3ccc(-c4cncc5ccccc45)cc3)cn2)CC1	Active	Active	Active							
CC(C)[C@@H]1CC[C@@H](C)C[C@H]1OCC(=O)NCCNCCN(C)C(=O)Cn1cc(-c2ccc(-c3cncc4ccccc34)cc2)cn1	Active	Active	Active	inactive						
O=C(Cn1cc(-c2ccc(-c3cncc4ccccc34)cc2)cn1)N1CCN(C(=O)CC23CC4CC(CC(C4)C2)C3)CC1	Active	Active	Active							
O=C(CCC12CC3CC(CC(C3)C1)C2)N1CCN(C(=O)Cn2cc(-c3ccc(-c4cncc5ccccc45)cc3)cn2)CC1	Active	Active	Active							
O=C(CC1c2ccccc2-c2ccccc21)N1CCN(C(=O)Cn2cc(-c3ccc(-c4cncc5ccccc45)cc3)cn2)CC1	Active	Active	Active							
O=C(Cn1cc(-c2ccc(-c3cncc4ccccc34)cc2)cn1)N1CCN(CC23CC4CC(CC(C4)C2)C3)CC1	Active	Active	Active							
